{
  "source": "patent US8765702B2",
  "about": "“Composition and methods for modulating cell proliferation and cell death” (Rosetta Genomics Ltd., priority 2007, dated 2014)",
  "key": {"[1]": {"system": "Notch pathway in A172 cells", "assay": "qRT-PCR of Notch pathway mRNAs (DLL1, Jag1, Notch1, Hey1)", "assay_type": "cell-based", "details": "72 hours after transfection; for mRNA levels of DLL1, Jag1 or Notch1: normalized to GAPDH", "method": "(B) A172 cells were transfected with either scrambled or anti-miR-34a LNA oligos. RNA was isolated 72 hours later, and subjected to qRT-PCR to determine relative levels of expression of DLL1, Jag1 and Notch1 (normalized to GAPDH).\n(C) A172 cells were transfected with pcDNA3-pm34a-EST-MUT (MUT) or pcDNA3-pm34a-EST (EST). RNA extraction and analysis was as in (B).\n(§1) RNA quantification was performed by real-time qRT-PCR in an ABI PRISM 7300 Sequence Detection System (Applied Biosystems) with SYBR Green Master Mix (Applied Biosystems). For mRNA quantification, cDNA produced with random hexamers and MMLV reverse transcriptase (Promega) from 10 ng of total RNA was subjected to RT-PCR using super SYBR-green ready mix (Applied Biosystems) and specific DNA primers (Table 1 for the EST, Table 2 for p21, Hdm2, GAPDH and HPRT). For small RNAs (U6, 5S, microRNAs), 50 ng total RNA was converted to cDNA using specific primers for reverse transcription (Ambion) and MMLV reverse transcriptase. Relative expression levels were determined by real-time qRT-PCR using super SYBR-green ready mix and specific primers (Ambion). Quantification was done using standard curves. All reactions were performed in duplicate.\nA complementary, opposite effect on Hey1 expression was seen when miR-34a was over-expressed in A172 cells."}, "[2]": {"system": "Bcl-2 mRNA", "assay": "Real-time PCR analysis of Bcl-2 mRNA", "assay_type": "cell-based, human", "details": "H1299 or U2OS cells, 100 nM pre-miR-34a RNA oligonucleotides, normalized to GAPDH mRNA", "method": "(§2) (A) H1299 or U2OS cells were transiently transfected with 100 nM control scrambled RNA (cont) or pre-miR-34a RNA oligonucleotides (pre-34a, Ambion) using siPORT NeoFX transfection reagent (Ambion). Three days post-transfection, cell extracts were prepared. 30 μg of total protein was subjected to SDS-15% polyacrylamide gel electrophoresis followed by Western blot analysis with antibodies directed against GAPDH (MAB374, Chemicon) and Bcl-2 (C-2, Santa Cruz). (B) Total RNA was extracted from identical cultures as in (A) using the mirVana miRNA isolation kit (Ambion). RNA was converted to cDNA using random hexamers and MMLV reverse transcriptase (Promega). cDNA obtained from 10 ng total RNA was subjected to real-time PCR analysis using specific primers for Bcl-2 mRNA (forward primer—5′-[…]-3′ (SEQ ID NO: 42), reverse primer—5′-ATCAAACAGAGGCCGCATG-3′ (SEQ ID NO: 43) and super SYBR-green ready mix (Applied Biosystems) in an ABI PRISM 7300 Sequence Detection System (Applied Biosystems). Bcl-2 mRNA levels were normalized relative to GAPDH mRNA (forward primer—5′-[…]-3′ (SEQ ID NO: 44), reverse primer—5′-AAAAGCAGCCCTGGTGACC-3′) (SEQ ID NO: 45) in the same samples. RU=relative units. (C) 200 ng of total RNA obtained from (B) was subjected to quantitative real-time RT-PCR using primers for mature miR-34a. Values were normalized relative to U6 RNA levels in the same samples. […]"}, "[3]": {"system": "Bcl-2", "assay": "Western blot analysis of Bcl-2 protein", "assay_type": "cell-based, human", "details": "H1299 or U2OS cells, 100 nM pre-miR-34a RNA oligonucleotides, three days post-transfection", "method": "as §2"}, "[4]": {"system": "pm34a-EST, miR-34a and p21 mRNA in H1299-TS cells", "assay": "qRT-PCR of p53-dependent induction in the presence of cycloheximide", "assay_type": "cell-based, human", "details": "H1299-TS cells shifted to 32° C., 80 nM CHX", "method": "(A) H1299 and 111299-TS cells were either left untreated or supplemented with 80 nM cycloheximide (CHX) for 30 min before being shifted to either 37° C. or 32° C. Cells were then incubated for the indicated time periods with continuous exposure to the drug. RNA was isolated and subjected to qRT-PCR analysis with primers specific for pm34a-EST. Values were normalized for HPRT in the same samples. (B) H1299-TS cells were processed essentially as in (A), except that CHX was added only where indicated. RNA was subjected to qRT-PCR with primers specific for mature miR-34a. Values were normalized for U6 RNA in the same samples. (C) The same RNA samples as in (B) were subjected to qRT-PCR analysis with primers specific for p21 mRNA. […]\nas §1, with “For small RNAs (U6, 5S, microRNAs), 50 ng total RNA was converted to cDNA using specific primers for reverse transcription (Ambion) and MMLV reverse transcriptase.” left out, “All reactions were performed in duplicate.” left out"}, "[5]": {"system": "Notch pathway in MCF7 cells", "assay": "qRT-PCR of Notch pathway mRNAs (DLL1, Jag1, Notch1, Hey1)", "assay_type": "cell-based, human", "method": "(D) MCF7 cells were transfected with scramble or anti-miR-34a LNA oligos. 24 h post-transfection, 20 μM Nutlin-3 was added to the half of the samples for additional 48 h. RNA extraction and analysis was as in (B).\nas §1"}, "[6]": {"system": "U2OS cells", "assay": "Apoptosis by microscopy and FACS-based sub-G1 DNA content", "assay_type": "cell-based, human"}, "[7]": {"system": "p53 binding to the pm34a-EST p53BS", "assay": "Chromatin immunoprecipitation (ChIP)", "assay_type": "cell-based, human", "details": "HCT116 cells, 50 μg/ml 5-FU for 16 hours", "method": "(A) HCT116 cells stably expressing shRNA specific for p53 (sip53) or for LacZ (siLacZ) were either left untreated or treated for 16 hours with 50 μg/ml 5-FU, and then subjected to ChIP analysis with antibodies directed against p53 or HA as a control. The precipitated DNA was subjected to quantitative real-time PCR analysis with primers spanning the 5′ p53BS of the p21 gene, the putative p53BS of the pm34a-EST, or the GAPDH gene as a negative control. (B) Schematic representation of the DNA fragment (thick bar) cloned into the luciferase reporter plasmid. The positions of the p53BS and exons 1 and 2 of the pm34a-EST are also indicated. (C) The putative promoter of the pm34a-EST was cloned upstream to the firefly luciferase reporter gene in the pGL3-basic vector to yield plasmid EST-Prom-luc. EST-Prom-luc was transfected into H1299 cells without or with the indicated amounts of p53 expression plasmid. Luciferase activity was then measured by the dual luciferase assay, and normalized for Renilla luciferase activity. […]\nChIP analysis was performed as described (Minsky, 2004), employing the CM1 p53-specific polyclonal antibody or anti-HA polyclonal antibody as a control. […] Quantification of precipitated DNA was preformed by real-time qPCR, using an ABI PRISM 7300 Sequence Detection System. […]"}, "[8]": {"system": "EST-Prom-luc (miR-34a putative promoter)", "assay": "Dual luciferase assay with EST-Prom-luc in HCT116 cells", "assay_type": "cell-based, human", "details": "HCT116 control (siLacZ) cells, 5-FU for 16 hours"}, "[9]": {"system": "p53 mRNA and p21 mRNA in U2OS cells", "assay": "qRT-PCR analysis of p53 mRNA and p21 mRNA after Nutlin-3", "assay_type": "cell-based, human", "details": "20 μM Nutlin-3 for 48 h, normalized to HPRT", "method": "(A) HCT116 cells stably expressing shRNA against p53 (sip53) or LacZ (siLacZ) were either treated with 50 μg/ml 5-FU for 16 h or left untreated. […] total RNA from each sample was subjected to qRT-PCR analysis of p21 mRNA. Results were normalized to HPRT expression in the same samples. (B) U2OS cells stably expressing shRNA against p53 (sip53) or LacZ (siLacZ) were either treated with 20 μM Nutlin-3 for 48 h or left untreated. RNA from each sample was subjected to qRT-PCR analysis of p53 mRNA and p21 mRNA. […] The modest increase in p53 mRNA (1.8 fold) has not been further investigated. (C) Western blot analysis of 20 μg total protein extracted from parallel cultures treated as in (A). […]\nas §1, with “For small RNAs (U6, 5S, microRNAs), 50 ng total RNA was converted to cDNA using specific primers for reverse transcription (Ambion) and MMLV reverse transcriptase.” left out, “All reactions were performed in duplicate.” left out"}},
  "data": [
    {"molecule": "miR-34a: microRNA SEQ ID NO: 1; overexpressed via pcDNA3-pm34a-EST (A172) or pre-miR-34a RNA oligonucleotides, Ambion (Bcl-2 study) (UGGCAGUGUCUUAGCUGGUUGUU; listed as RNA, chemistry not fully specified; listed as Homo sapiens)", "values": [
      {"measurement": "expression of Hey1", "setting": "[1]", "value": "reduction in Hey1 mRNA"},
      {"measurement": "mRNA levels of DLL1, Jag1 or Notch1", "setting": "[1]", "value": "absence of any change"},
      {"measurement": "Bcl-2 mRNA", "setting": "[2]", "value": "without a measurable decrease"},
      {"measurement": "Bcl-2 protein", "setting": "[3]", "value": "decreased"}
    ]},
    {"molecule": "C[C@@H]1C[C@@H]([C@H](O)CC2CC(=O)NC(=O)C2)C(=O)[C@@H](C)C1", "note": "[CHX, cycloheximide]", "values": [
      {"measurement": "induction of pm34a-EST or mature miR-34a", "setting": "[4]", "value": "did not prevent the induction"},
      {"measurement": "p21 mRNA induction", "setting": "[4]", "value": "nor did it affect"}
    ]},
    {"molecule": "5′-aacaaccagctaagacactgcca-3′ (antisense AACAACCAGCTAAGACACTGCCA; LNA-modified, pattern not given here) [LNA anti-miR-34a]", "values": [
      {"measurement": "expression of Hey1", "setting": "[1]", "value": "up-regulation"},
      {"measurement": "mRNA levels of DLL1, Jag1 or Notch1", "setting": "[1]", "value": "no effect"},
      {"measurement": "expression of Hey1 following p53 activation", "setting": "[5]; 20 μM Nutlin-3 for 48 h", "value": "stronger effect"},
      {"measurement": "expression of Hey1", "setting": "[5]; versus scrambled LNA", "value": "up-regulation"},
      {"measurement": "mRNA levels of DLL1, Jag1 or Notch1", "setting": "[5]; versus scrambled LNA", "value": "no effect"},
      {"measurement": "protection from apoptosis in p53 knockdown cells", "setting": "[6]; U2OS cells stably expressing p53 shRNA (sip53)", "value": "not observed"},
      {"measurement": "spontaneous apoptosis", "setting": "[6]; U2OS cells, 100 nM LNA, versus scrambled oligonucleotide", "value": "decrease in spontaneous apoptosis"},
      {"measurement": "apoptosis due to Nutlin-3 treatment", "setting": "[6]; U2OS siLacZ cells, 100 nM LNA with 20 μM Nutlin-3 for 48 hours", "value": "partial protection"}
    ]},
    {"molecule": "O=c1[nH]cc(F)c(=O)[nH]1", "note": "[5-FU, 5 fluorouracil]", "values": [
      {"measurement": "p53 binding to the pm34a-EST p53BS", "setting": "[7]", "value": "further augmented"},
      {"measurement": "luciferase activity", "setting": "[8]", "value": "nearly twofold increase"}
    ]},
    {"molecule": "COc1ccc(C2=N[C@@H](c3ccc(Cl)cc3)[C@@H](c3ccc(Cl)cc3)N2C(=O)N2CCNC(=O)C2)c(OC(C)C)c1", "note": "[Nutlin-3]", "values": [
      {"measurement": "p21 mRNA increase", "setting": "[9]", "value": 10.3, "unit": "fold"},
      {"measurement": "p53 mRNA increase", "setting": "[9]", "value": 1.8, "unit": "fold"},
      {"measurement": "Jag1 and Notch1 mRNA levels", "setting": "[5]; 20 μM Nutlin-3 for 48 h", "value": "induction"},
      {"measurement": "apoptosis", "setting": "[6]; U2OS cells, 20 μM Nutlin-3 for 48 hours", "value": "enhanced apoptosis"}
    ]}
  ]
}
